Source: ChEMBL document CHEMBL1201862, “PubChem BioAssay data set” (2004)
Active and inactive are the calls of the source.

Columns and labels:
Assay type in all cases: functional
[1] = biological target: 5'-AMP-activated protein kinase catalytic subunit alpha-1 (Homo sapiens, UniProt Q13131)
[2] = biological target: T1, Aurora kinase A (Homo sapiens, UniProt O14965);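 note: value from the Navigating the Kinome kinase panel profiling, panel entry STK6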
T1 sequence (O14965 whole entry): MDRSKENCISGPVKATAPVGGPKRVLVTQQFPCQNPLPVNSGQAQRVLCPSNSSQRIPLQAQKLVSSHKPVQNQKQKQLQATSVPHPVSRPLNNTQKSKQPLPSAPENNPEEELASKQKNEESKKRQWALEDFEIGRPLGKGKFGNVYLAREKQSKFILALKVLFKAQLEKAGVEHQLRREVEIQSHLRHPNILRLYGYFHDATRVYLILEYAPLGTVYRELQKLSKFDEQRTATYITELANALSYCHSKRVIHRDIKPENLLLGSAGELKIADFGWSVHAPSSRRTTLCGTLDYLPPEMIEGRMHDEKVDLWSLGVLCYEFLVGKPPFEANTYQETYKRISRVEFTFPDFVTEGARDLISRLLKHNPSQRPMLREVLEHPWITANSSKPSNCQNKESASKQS

[3] = biological target: High affinity nerve growth factor receptor (Homo sapiens, UniProt P04629);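 note: NTRK1 tested as one member of a kinome-wide profiling panel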
Sequence of High affinity nerve growth factor receptor (P04629 whole entry): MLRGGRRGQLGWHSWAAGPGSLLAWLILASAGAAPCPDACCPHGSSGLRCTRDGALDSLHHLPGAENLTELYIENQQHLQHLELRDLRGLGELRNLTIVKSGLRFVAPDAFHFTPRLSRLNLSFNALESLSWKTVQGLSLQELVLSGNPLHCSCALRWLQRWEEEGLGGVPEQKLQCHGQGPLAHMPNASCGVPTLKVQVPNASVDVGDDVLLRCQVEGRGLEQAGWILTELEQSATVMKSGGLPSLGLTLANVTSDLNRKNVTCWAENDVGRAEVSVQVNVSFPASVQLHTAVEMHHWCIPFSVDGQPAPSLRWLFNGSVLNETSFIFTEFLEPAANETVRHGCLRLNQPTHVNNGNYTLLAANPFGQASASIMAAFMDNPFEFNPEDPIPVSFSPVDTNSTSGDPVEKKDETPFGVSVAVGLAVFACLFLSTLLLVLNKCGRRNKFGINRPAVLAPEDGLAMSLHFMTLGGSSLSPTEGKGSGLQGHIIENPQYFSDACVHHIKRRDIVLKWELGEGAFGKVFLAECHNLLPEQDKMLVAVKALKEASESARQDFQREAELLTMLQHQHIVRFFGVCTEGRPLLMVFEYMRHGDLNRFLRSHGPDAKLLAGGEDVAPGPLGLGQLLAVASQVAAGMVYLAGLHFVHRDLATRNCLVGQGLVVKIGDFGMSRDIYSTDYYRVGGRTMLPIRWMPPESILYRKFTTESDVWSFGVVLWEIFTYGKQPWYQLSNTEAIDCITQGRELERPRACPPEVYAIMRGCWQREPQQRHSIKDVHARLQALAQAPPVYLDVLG

[4] = biological target: T2, Mitogen-activated protein kinase kinase kinase kinase 2 (Homo sapiens, UniProt Q12851);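 note: measured as one member of a kinome-wide kinase panel, with MAP4K2 as the panel entry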
T2 sequence (Q12851 whole entry): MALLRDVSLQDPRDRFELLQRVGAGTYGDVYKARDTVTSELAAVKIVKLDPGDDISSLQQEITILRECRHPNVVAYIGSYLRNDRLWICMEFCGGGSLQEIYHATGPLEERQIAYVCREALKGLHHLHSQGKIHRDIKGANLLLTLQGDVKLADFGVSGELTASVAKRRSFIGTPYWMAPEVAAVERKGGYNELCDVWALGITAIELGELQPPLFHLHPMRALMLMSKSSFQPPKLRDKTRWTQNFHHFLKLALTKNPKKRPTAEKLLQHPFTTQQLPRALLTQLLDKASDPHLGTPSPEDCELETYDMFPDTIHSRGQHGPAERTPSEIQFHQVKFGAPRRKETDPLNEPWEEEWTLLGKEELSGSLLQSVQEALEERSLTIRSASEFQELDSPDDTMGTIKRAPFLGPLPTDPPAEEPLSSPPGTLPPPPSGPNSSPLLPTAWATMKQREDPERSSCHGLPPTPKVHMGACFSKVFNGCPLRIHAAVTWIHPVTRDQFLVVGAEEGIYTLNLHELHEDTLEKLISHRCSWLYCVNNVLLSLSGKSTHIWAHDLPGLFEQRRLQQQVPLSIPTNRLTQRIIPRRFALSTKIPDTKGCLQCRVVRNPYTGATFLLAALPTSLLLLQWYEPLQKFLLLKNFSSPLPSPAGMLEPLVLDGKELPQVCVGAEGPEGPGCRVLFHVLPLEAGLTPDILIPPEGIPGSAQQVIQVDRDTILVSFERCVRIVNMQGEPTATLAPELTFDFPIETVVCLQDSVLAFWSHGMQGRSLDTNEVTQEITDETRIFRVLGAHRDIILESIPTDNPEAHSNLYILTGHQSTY

[5] = biological target: Hepatocyte growth factor receptor (Homo sapiens, UniProt P08581);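 note: kinase panel profiling across the kinome, with MET as the panel member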
Sequence of Hepatocyte growth factor receptor (P08581 whole entry): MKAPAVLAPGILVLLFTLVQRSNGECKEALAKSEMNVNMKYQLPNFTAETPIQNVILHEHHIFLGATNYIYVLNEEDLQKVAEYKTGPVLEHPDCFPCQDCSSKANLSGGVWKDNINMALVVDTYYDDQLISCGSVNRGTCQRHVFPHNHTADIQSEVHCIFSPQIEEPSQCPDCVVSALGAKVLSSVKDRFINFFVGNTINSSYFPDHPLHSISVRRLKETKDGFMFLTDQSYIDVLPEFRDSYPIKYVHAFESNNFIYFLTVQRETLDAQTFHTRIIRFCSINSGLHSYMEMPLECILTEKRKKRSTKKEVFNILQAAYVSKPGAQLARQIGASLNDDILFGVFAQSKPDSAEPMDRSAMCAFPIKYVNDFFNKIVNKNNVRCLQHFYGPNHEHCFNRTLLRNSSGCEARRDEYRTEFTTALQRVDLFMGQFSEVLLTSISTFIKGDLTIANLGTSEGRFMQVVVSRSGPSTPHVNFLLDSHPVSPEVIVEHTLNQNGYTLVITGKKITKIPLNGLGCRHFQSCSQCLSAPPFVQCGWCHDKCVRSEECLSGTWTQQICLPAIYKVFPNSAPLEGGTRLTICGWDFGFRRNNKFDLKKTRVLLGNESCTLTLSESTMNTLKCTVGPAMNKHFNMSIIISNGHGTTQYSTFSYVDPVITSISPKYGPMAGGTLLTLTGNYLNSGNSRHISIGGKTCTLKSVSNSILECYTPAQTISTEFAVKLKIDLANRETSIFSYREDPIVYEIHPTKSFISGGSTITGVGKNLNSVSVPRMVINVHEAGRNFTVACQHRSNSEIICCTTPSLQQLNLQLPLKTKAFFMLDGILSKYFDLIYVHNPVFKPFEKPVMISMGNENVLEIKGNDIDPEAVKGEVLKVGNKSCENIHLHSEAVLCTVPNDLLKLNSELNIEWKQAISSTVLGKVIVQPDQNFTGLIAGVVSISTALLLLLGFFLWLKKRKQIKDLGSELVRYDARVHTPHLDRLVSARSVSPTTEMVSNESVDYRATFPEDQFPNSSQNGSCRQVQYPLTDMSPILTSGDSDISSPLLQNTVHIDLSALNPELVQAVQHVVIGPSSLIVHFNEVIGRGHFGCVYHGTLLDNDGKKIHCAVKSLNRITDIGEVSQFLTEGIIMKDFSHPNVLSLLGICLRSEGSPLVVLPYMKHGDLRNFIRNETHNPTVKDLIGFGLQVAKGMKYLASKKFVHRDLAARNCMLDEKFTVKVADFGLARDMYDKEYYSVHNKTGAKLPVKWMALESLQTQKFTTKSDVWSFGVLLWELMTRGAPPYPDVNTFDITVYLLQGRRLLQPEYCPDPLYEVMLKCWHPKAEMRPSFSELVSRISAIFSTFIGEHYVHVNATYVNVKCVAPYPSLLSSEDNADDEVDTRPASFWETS

[6] = biological target: Vascular endothelial growth factor receptor 2 (Homo sapiens, UniProt P35968)
Sequence of Vascular endothelial growth factor receptor 2 (P35968 whole entry): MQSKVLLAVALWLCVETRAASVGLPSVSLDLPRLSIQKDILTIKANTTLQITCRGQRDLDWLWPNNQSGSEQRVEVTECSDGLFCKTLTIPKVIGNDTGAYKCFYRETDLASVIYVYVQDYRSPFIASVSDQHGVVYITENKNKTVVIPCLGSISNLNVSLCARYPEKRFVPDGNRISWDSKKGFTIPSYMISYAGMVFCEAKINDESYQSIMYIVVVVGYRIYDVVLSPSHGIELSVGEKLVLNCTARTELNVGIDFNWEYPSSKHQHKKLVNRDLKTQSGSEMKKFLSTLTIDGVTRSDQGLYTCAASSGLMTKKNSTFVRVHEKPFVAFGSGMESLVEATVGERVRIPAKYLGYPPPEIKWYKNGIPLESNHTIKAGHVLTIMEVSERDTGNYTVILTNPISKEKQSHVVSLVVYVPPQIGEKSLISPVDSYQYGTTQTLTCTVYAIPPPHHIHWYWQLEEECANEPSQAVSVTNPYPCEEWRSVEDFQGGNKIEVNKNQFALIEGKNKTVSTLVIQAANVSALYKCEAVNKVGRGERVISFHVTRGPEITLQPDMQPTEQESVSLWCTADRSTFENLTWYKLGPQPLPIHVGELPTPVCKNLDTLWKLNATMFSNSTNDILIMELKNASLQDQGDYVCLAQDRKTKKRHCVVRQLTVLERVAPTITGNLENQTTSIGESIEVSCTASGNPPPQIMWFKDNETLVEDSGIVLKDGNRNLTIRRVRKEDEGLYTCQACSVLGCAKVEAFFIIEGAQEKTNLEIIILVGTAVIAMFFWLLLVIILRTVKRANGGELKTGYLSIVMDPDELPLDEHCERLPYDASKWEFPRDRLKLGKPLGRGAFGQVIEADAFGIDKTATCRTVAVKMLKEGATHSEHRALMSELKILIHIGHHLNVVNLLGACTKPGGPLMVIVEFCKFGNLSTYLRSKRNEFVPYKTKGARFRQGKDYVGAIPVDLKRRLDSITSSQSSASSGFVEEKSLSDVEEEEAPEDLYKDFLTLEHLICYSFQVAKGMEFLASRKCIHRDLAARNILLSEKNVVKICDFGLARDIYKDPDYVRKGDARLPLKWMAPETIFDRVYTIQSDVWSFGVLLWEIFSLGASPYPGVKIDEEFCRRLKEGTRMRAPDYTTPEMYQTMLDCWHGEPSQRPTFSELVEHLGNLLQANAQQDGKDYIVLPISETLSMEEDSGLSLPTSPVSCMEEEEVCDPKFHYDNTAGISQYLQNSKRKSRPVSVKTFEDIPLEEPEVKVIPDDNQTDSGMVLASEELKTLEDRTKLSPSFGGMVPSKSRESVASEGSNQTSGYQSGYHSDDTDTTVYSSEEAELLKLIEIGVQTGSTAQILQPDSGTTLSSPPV

[7] = biological target: Vascular endothelial growth factor receptor 1 (Homo sapiens, UniProt P17948);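 note: measured within a kinome-wide profiling panel, FLT1 as the panel member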
[8] = biological target: Leukocyte tyrosine kinase receptor (Homo sapiens, UniProt P29376); assay: Navigating the Kinome. Panel member name: LTK
Sequence of Leukocyte tyrosine kinase receptor (P29376 whole entry): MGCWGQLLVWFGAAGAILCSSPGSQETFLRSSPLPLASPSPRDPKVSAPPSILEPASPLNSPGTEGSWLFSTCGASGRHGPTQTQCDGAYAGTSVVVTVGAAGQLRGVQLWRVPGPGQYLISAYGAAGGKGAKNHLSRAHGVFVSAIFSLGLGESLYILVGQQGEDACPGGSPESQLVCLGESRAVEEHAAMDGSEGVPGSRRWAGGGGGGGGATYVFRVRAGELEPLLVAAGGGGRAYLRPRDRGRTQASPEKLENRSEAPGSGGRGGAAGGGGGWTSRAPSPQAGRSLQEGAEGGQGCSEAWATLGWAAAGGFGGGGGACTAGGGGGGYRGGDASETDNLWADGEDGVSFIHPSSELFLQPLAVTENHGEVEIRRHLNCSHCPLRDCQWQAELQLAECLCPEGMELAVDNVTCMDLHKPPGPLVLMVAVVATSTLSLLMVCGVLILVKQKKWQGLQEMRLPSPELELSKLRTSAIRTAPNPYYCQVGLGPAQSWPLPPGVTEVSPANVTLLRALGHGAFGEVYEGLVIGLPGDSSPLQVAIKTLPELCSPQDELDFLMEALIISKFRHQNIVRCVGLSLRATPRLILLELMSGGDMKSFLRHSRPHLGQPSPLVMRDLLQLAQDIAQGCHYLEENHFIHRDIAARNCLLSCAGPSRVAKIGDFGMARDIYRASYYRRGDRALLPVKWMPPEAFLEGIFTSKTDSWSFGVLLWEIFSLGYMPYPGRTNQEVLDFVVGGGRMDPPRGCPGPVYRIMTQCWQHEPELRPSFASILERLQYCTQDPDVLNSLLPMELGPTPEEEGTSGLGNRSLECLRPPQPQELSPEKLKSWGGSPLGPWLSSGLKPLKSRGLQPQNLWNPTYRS

[9] = biological target: Mitogen-activated protein kinase 14 (Homo sapiens, UniProt Q16539);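 note: part of a kinome-wide panel, MAPK14 entry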
Sequence of Mitogen-activated protein kinase 14 (Q16539 whole entry): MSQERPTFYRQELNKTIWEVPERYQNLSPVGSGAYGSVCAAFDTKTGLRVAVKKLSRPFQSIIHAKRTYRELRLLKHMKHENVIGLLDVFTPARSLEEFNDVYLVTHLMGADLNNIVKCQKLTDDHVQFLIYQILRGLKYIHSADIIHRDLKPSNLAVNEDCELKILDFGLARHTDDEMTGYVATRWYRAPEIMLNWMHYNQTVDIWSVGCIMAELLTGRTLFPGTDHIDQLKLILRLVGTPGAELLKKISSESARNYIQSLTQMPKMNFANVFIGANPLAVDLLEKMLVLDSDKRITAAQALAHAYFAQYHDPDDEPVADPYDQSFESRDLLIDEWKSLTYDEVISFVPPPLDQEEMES

[10] = biological target: T3, Protein RecA (Mycobacterium tuberculosis, UniProt P9WHJ3); assay: Fluorescence Cell-Free Homogeneous Dose Retest to Identify Inhibitors of RecA-Intein Splicing Activity. [Related pubchem assays (depositor defined):AID2097, AID2223, AID489010, AID492950]
T3 sequence (P9WHJ3 whole entry): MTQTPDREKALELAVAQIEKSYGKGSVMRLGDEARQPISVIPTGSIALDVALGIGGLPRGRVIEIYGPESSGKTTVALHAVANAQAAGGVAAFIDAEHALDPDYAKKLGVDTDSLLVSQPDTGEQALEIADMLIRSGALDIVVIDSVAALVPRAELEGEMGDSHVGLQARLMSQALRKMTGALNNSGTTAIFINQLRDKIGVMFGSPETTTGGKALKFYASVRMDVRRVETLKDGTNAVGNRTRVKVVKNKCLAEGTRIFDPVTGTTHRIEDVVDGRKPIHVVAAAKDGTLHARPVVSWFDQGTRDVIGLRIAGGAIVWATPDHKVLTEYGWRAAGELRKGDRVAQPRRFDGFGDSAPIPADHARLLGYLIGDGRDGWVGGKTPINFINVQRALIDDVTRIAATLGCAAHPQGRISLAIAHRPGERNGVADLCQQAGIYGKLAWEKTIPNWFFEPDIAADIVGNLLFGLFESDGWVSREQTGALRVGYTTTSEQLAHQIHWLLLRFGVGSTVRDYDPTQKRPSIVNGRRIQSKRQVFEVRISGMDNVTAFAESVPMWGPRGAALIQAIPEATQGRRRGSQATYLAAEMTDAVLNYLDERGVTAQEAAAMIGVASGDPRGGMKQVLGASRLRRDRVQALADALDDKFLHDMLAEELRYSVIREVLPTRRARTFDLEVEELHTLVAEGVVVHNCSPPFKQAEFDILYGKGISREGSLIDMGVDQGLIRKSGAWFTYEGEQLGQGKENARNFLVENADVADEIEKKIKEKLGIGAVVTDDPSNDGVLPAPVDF

[11] = biological target: T4, Activin receptor type-1 (Homo sapiens, UniProt Q04771); assay: Navigating the Kinome. Panel member name: ACVR1
T4 sequence (Q04771 whole entry): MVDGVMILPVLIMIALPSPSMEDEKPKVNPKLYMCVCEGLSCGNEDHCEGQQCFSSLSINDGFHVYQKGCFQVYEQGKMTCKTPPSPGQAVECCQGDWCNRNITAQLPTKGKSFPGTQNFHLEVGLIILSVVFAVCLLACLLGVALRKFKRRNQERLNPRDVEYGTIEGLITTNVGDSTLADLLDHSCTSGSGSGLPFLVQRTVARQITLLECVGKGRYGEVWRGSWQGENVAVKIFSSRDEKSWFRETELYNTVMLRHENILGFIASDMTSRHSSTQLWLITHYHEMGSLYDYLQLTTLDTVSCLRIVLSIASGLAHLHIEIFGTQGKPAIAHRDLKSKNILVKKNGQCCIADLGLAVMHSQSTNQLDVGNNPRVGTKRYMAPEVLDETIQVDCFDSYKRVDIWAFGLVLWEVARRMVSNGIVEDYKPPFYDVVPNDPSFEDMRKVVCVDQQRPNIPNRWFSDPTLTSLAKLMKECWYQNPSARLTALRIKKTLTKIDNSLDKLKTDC

Compound | Ki [1] | Ki [2] | Ki [3] | Ki [4] | Ki [5] | Ki [6] | Ki [7] | Ki [8] | Ki [9] | EC50 [10] | Ki [11]
O=C(Nc1cccc(C(F)(F)F)n1)Nc1ccnc2cc(OC(F)F)ccc12 | > 3160 nM (inactive) | > 1580 nM (inactive) | > 3160 nM (inactive) | > 2510 nM (inactive) | > 2510 nM (inactive) | > 1580 nM (inactive) | > 3980 nM (inactive) | > 2510 nM (inactive) | > 3980 nM (inactive) |  | 
Cc1cc(C)c(S(=O)(=O)/N=C2\C=C(Nc3ccc(C(=O)O)cc3)C(=O)c3ccccc32)c(C)c1 |  |  |  |  |  |  |  |  |  | 69.6 nM (active) | 
CCC1CC(NS(=O)(=O)C2CC2)CC1c1ncc2cnc3[nH]ccc3n12 (centres undefined) | 2000 nM (active) | 1260 nM (active) | > 3160 nM (inactive) | > 2510 nM (inactive) | > 2510 nM (inactive) | 1000 nM (active) | > 3980 nM (inactive) | 200 nM (active) | > 3980 nM (inactive) |  | > 3980 nM (inactive)
COC(=O)c1nc(-c2ccc3c(n2)C(=O)C(=N)C(OC)=C3O)c(N)c(-c2ccc(OC)c(OC)c2O)c1C |  |  |  |  |  |  |  |  |  | 342 nM (active) | 
O=C(Cc1ccccc1)NC1(O)C(=O)c2ccccc2C1=O |  |  |  |  |  |  |  |  |  | 8670 nM (active) | 
O=c1[nH]c2cc(Br)cnc2[nH]1 | 25100 nM (active) | 10000 nM (active) |  | 12600 nM (active) |  | 20000 nM (active) | 10000 nM (active) | 7940 nM (active) |  |  | 25100 nM (active)
O=C(Nc1cccc(C(F)(F)F)n1)Nc1ccnc2cc(Cl)ccc12 | > 3160 nM (inactive) | > 1580 nM (inactive) | 2510 nM (active) | > 2510 nM (inactive) | > 2510 nM (inactive) | > 2510 nM (inactive) | > 3980 nM (inactive) | > 2510 nM (inactive) | > 3980 nM (inactive) |  | 1000 nM (active)
